Reference: ChEMBL document CHEMBL5537151, “Design, synthesis and bioactivity evaluation of novel fusion peptides and their CPT conjugates inducing effective anti-tumor responses on HER2 positive tumors” (Eur J Med Chem, 2024)
Peptide text beside a SMILES is read from it. * marks the point of attachment. X2 = CCC1(OC(=O)CCCCCN2C(=O)CC(*)C2=O)C(=O)OCc2c1cc1n(c2=O)Cc2cc3ccccc3nc2-1; X4 = CCC1(OC(=O)OCCSSC[C@H](N)C(=O)*)C(=O)OCc2c1cc1n(c2=O)Cc2cc3ccccc3nc2-1; X5 = CCC1(OC(=O)CCS*)C(=O)OCc2c1cc1n(c2=O)Cc2cc3ccccc3nc2-1

What was measured:
MDA-MB-231 = assay: cells; settings: Homo sapiens, MDA-MB-231, 48 h
Description: Cytotoxicity against HER-negative human MDA-MB-231 cells incubated for 48 hrs by CCK-8 assay

[1] = Cytotoxicity against HER-negative human MCF-10A cells incubated for 48 hrs by CCK-8 assay; type: toxicity, cell-based
SK-OV-3 = assay: cells; settings: Homo sapiens, SK-OV-3, 48 h
Description: Cytotoxicity against HER-positive human SK-OV-3 cells incubated for 48 hrs by CCK-8 assay

SK-BR-3 [2] = assay: cells; settings: Homo sapiens, SK-BR-3, 48 h
Description: Cytotoxicity against HER-positive human SK-BR-3 cells incubated for 48 hrs by CCK-8 assay

NCI-N87 = assay: cells; settings: Homo sapiens, NCI-N87, 48 h
Description: Cytotoxicity against HER-positive human NCI-N87 cells incubated for 48 hrs by CCK-8 assay

SK-BR-3 [3] = assay: Induction of apoptosis in human SK-BR-3 cells assessed as early apoptotic cells at 1 uM incubated for 24 hrs by Annexin V-FITC/PI staining based flow cytometry analysis (reference value: 2.80%); type: functional
[4] = Toxicity in nude mouse xenografted with human SK-BR-3 cells assessed as increase in AST level at 8 umol/kg, iv administered every 3 days for 14 days; type: organism-based; settings: in vivo, 336 h, dose 8 µmol/kg, time 14 day
SK-BR-3 [5] = assay: Induction of apoptosis in human SK-BR-3 cells assessed as necrotic cells at 1 uM incubated for 24 hrs by Annexin V-FITC/PI staining based flow cytometry analysis (reference value: 1.49%); type: functional
[6] = Toxicity in nude mouse xenografted with human SK-BR-3 cells assessed as increase in ALT level at 8 umol/kg, iv administered every 3 days for 14 days; type: organism-based; settings: in vivo, 336 h, dose 8 µmol/kg, time 14 day
[7] = Toxicity in nude mouse xenografted with human SK-BR-3 cells assessed as change in total protein level at 8 umol/kg, iv administered every 3 days for 14 days; type: organism-based; settings: in vivo, 336 h, dose 8 µmol/kg, time 14 day
SK-BR-3 [8] = assay: Induction of apoptosis in human SK-BR-3 cells assessed as live cells at 1 uM incubated for 24 hrs by Annexin V-FITC/PI staining based flow cytometry analysis (reference value: 94.6%); type: functional
[9] = Toxicity in nude mouse xenografted with human SK-BR-3 cells assessed as change in globulin level at 8 umol/kg, iv administered every 3 days for 14 days; type: organism-based; settings: in vivo, 336 h, dose 8 µmol/kg, time 14 day
[10] = Toxicity in nude mouse xenografted with human SK-BR-3 cells assessed as change in albumin level at 8 umol/kg, iv administered every 3 days for 14 days; type: organism-based; settings: in vivo, 336 h, dose 8 µmol/kg, time 14 day
[11] = Toxicity in nude mouse xenografted with human SK-BR-3 cells assessed as change in alkaline phosphatase level at 8 umol/kg, iv administered every 3 days for 14 days; type: organism-based; settings: in vivo, 336 h, dose 8 µmol/kg, time 14 day
SK-BR-3 [12] = assay: Induction of apoptosis in human SK-BR-3 cells assessed as late apoptotic cells at 1 uM incubated for 24 hrs by Annexin V-FITC/PI staining based flow cytometry analysis (reference value: 1.11%); type: functional

Row | Structure (SMILES) | IC50 (MDA-MB-231) [µM] | IC50 at 48 h [1] [µM] | IC50 (SK-OV-3) [µM] | IC50 (SK-BR-3 [2]) [µM] | IC50 (NCI-N87) [µM] | Activity (SK-BR-3 [3]) [%] | Activity [4] | Activity (SK-BR-3 [5]) [%] | Activity [6] | Activity [7] | Activity (SK-BR-3 [8]) [%] | Activity [9] | Activity [10] | Activity [11] | Activity (SK-BR-3 [12]) [%]
1 | CC[C@H](C)[C@H](NC(=O)[C@@H]1CCCN1C(=O)[C@@H](NC(=O)[C@H](C)N)C(C)C)C(=O)N[C@@H](C)C(=O)N[C@@H](CCC(N)=O)C(=O)N[C@@H](CCCCN)C(=O)N[C@@H](CSSCCC(=O)OC1(CC)C(=O)OCc2c1cc1n(c2=O)Cc2cc3ccccc3nc2-1)C(=O)NCC(=O)N[C@@H](Cc1ccccc1)C(=O)N[C@@H](CC(C)C)C(=O)NCC(=O)N[C@@H](CC(N)=O)C(=O)N1CCC[C@H]1C(=O)N[C@@H](CC(N)=O)C(=O)N[C@@H](Cc1c[nH]c2ccccc12)C(=O)NCC(=O)N[C@@H](CCCNC(=N)N)C(=O)N[C@@H](CO)C(=O)N[C@@H](Cc1c[nH]c2ccccc12)C(=O)N[C@@H](Cc1ccc(O)cc1)C(=O)N[C@@H](CC(N)=O)C(=O)N[C@@H](CCC(N)=O)C(=O)N[C@@H](CCCNC(=N)N)C(=O)N[C@@H](Cc1ccccc1)C(=O)N[C@@H](CCCCN)C(N)=O (stereo not given in full) (H-AVPIAQKC(X5)GFLGNPNWGRSWYNQRFK-NH2) | 16.2 | 22.1 | 5.81 | 1.78 | 6.53 | – | – | – | – | – | – | – | – | – | –
2 | CC[C@H](C)[C@H](NC(=O)[C@@H]1CCCN1C(=O)[C@@H](NC(=O)[C@H](C)N)C(C)C)C(=O)N[C@@H](C)C(=O)N[C@@H](CCC(N)=O)C(=O)N[C@@H](CCCCN)C(=O)NCC(=O)N[C@@H](Cc1ccccc1)C(=O)N[C@@H](CC(C)C)C(=O)NCC(=O)N[C@@H](CC(N)=O)C(=O)N1CCC[C@H]1C(=O)N[C@@H](CC(N)=O)C(=O)N[C@@H](Cc1c[nH]c2ccccc12)C(=O)NCC(=O)N[C@@H](CCCNC(=N)N)C(=O)N[C@@H](CO)C(=O)N[C@@H](Cc1c[nH]c2ccccc12)C(=O)N[C@@H](Cc1ccc(O)cc1)C(=O)N[C@@H](CC(N)=O)C(=O)N[C@@H](CCC(N)=O)C(=O)N[C@@H](CCCNC(=N)N)C(=O)N[C@@H](Cc1ccccc1)C(=O)N[C@@H](CCCCNC(=O)[C@@H](N)CSSCCOC(=O)OC1(CC)C(=O)OCc2c1cc1n(c2=O)Cc2cc3ccccc3nc2-1)C(N)=O (stereo not given in full) (H-AVPIAQKGFLGNPNWGRSWYNQRFK(X4)-NH2) | 4.73 | 15.2 | 6.17 | 0.58 | 3.86 | – | – | – | – | – | – | – | – | – | –
3 | CC[C@H](C)[C@H](NC(=O)[C@@H]1CCCN1C(=O)[C@@H](NC(=O)[C@H](C)N)C(C)C)C(=O)N[C@@H](C)C(=O)N[C@@H](CCC(N)=O)C(=O)N[C@@H](CCCCN)C(=O)N[C@@H](CSC1CC(=O)N(CCCCCC(=O)OC2(CC)C(=O)OCc3c2cc2n(c3=O)Cc3cc4ccccc4nc3-2)C1=O)C(=O)NCC(=O)N[C@@H](Cc1ccccc1)C(=O)N[C@@H](CC(C)C)C(=O)NCC(=O)N[C@@H](CC(N)=O)C(=O)N1CCC[C@H]1C(=O)N[C@@H](CC(N)=O)C(=O)N[C@@H](Cc1c[nH]c2ccccc12)C(=O)NCC(=O)N[C@@H](CCCNC(=N)N)C(=O)N[C@@H](CO)C(=O)N[C@@H](Cc1c[nH]c2ccccc12)C(=O)N[C@@H](Cc1ccc(O)cc1)C(=O)N[C@@H](CC(N)=O)C(=O)N[C@@H](CCC(N)=O)C(=O)N[C@@H](CCCNC(=N)N)C(=O)N[C@@H](Cc1ccccc1)C(=O)N[C@@H](CCCCN)C(N)=O (stereo not given in full) (H-AVPIAQKC(X2)GFLGNPNWGRSWYNQRFK-NH2) | 28.2 | > 50 | > 50 | 15.7 | 20.1 | – | – | – | – | – | – | – | – | – | –
4 | CC[C@@]1(O)C(=O)OCc2c1cc1n(c2=O)Cc2cc3ccccc3nc2-1 [CAMPTOTHECIN] | 0.53 | 3.02 | 4.07 | 0.38 | 2.07 | 27.3 | Toxic | 0.94 | Toxic | Non-Toxic | 54.9 | Non-Toxic | Non-Toxic | Non-Toxic | 16.9
